The record followed here is patent US8901309B2, “Fused triazoles for the treatment or prophylaxis of mild cognitive impairment” (Takeda Pharmaceutical Company Limited, priority 2010, dated 2014).

The test system of the test is Aβ42 in hippocampi of C57BL/6J mice. Nature of the test: Hippocampal soluble Aβ42 ELISA in mice after oral administration. The class given is in vivo, mouse. The following applies: 10 mg/kg orally, hippocampi isolated 3 hours after administration, soluble Aβ42 by ELISA; for inhibition in vivo at 10 mg/kg: Mus musculus, po, 3 h, read-out: Aβ42 production inhibitory activity (% inhibition); for Aβ42 production inhibitory activity (% inhibition): 10 mg/kg. Here is the method: Measurement of Amyloid β Production Inhibition Rate Using Primary Nerve Cell
C57BL/6J mice (7-10 weeks old) were purchased from CLEA Japan Inc. Mice were housed in groups and kept on a 12h-light; 12h-dark schedule. All mice were given ad libitum access to food and water.
Each test compound was reconstituted in solubilization buffer ([DMSO (Wako)]: [10% Cremophor (Nakarai)+30% polyethylene glycol 400 (Wako)+60% 2 mol/L Citrate buffer (Wako)]=1:9) and orally administrated at 10 mg/kg.
Hippocampi was isolated from animals, 3 hours after test compounds were orally administrated. Hippocampi were homogenized in ice-cold Tris-extraction buffer (50 mmol/L Tris-HCl, pH 7.2, 200 mmol/L sodium chloride, 2% protease-free bovine serum albumin, and 0.01% sodium merthiolate) containing protease inhibitor cocktails (Roche, Switzerland). After centrifugation at 15,000 rpm for 15 minutes, the supernatants were subjected to two-site sandwich ELISA to measure amount of soluble Aβ. Aβ42 was quantitated by two-site sandwich ELISA using BNT77, which recognizes Aβ11-28, as a capture antibody and BC05-HRP as a detector antibody, respectively.

`COc1nc(-c2nnc3n2CCCC3(Oc2ccc(Cl)c(F)c2)C(C)(C)O)ccc1-n1cnc(C)c1` (centres unmarked) [Example 1, 2-{8-(4-chloro-3-fluorophenoxy)-3-[6-methoxy-5-(4-methyl-1H-imidazol-1-yl)pyridin-2-yl]-5,6,7,8-tetrahydro[1,2,4]triazolo[4,3-a]pyridin-8-yl}propan-2-ol]: the inhibition in vivo at 10 mg/kg turned out to be 40%. On to `COc1nc(-c2nnc3n2CCCC3(Oc2ccc(F)c(C(F)(F)F)c2)C(C)(C)O)ccc1-n1cnc(C)c1` (centres unmarked) [Example 2, 2-{8-[4-fluoro-3-(trifluoromethyl)phenoxy]-3-[6-methoxy-5-(4-methyl-1H-imidazol-1-yl)pyridin-2-yl]-5,6,7,8-tetrahydro[1,2,4]triazolo[4,3-a]pyridin-8-yl}propan-2-ol], for which the “Aβ42 production inhibitory activity (% inhibition)” value was found to be 48 % inhibition. For `COc1cc(-c2nnc3n2CCCC3(CC2CC2)c2ccc(F)c(F)c2)ccc1-c1cnc(C)o1` (centres unmarked) [Example 21, optically active 8-(cyclopropylmethyl)-8-(3,4-difluorophenyl)-3-[3-methoxy-4-(2-methyl-1,3-oxazol-5-yl)phenyl]-5,6,7,8-tetrahydro[1,2,4]triazolo[4,3-a]pyridine], the inhibition in vivo at 10 mg/kg stood at 39%. Turning to `COc1cc(-c2nnc3n2CCCC3(Oc2ccc(F)c(F)c2)C(C)(C)O)ccc1-c1cnc(C)o1` (centres unmarked) [Example 92, 2-{8-(3,4-difluorophenoxy)-3-[3-methoxy-4-(2-methyl-1,3-oxazol-5-yl)phenyl]-5,6,7,8-tetrahydro[1,2,4]triazolo[4,3-a]pyridin-8-yl}propan-2-ol], the “Aβ42 production inhibitory activity (% inhibition)” value came out at 32 % inhibition.

Regarding `COc1cc(-c2nnc3n2CCCC3(Oc2cc(F)c(F)c(F)c2)C(C)(C)O)ccc1-c1cnc(C)o1` (centres unmarked) [Example 99, 2-{3-[3-methoxy-4-(2-methyl-1,3-oxazol-5-yl)phenyl]-8-(3,4,5-trifluorophenoxy)-5,6,7,8-tetrahydro[1,2,4]triazolo[4,3-a]pyridin-8-yl}propan-2-ol], the inhibition in vivo at 10 mg/kg stood at 34%.

For `COc1cc(-c2nnc3n2CCCC3(Oc2cccc(C(F)(F)F)c2)C(C)(C)O)ccc1-c1cnc(C)o1` (centres unmarked) [Example 103, 2-{3-[3-methoxy-4-(2-methyl-1,3-oxazol-5-yl)phenyl]-8-[3-(trifluoromethyl)phenoxy]-5,6,7,8-tetrahydro[1,2,4]triazolo[4,3-a]pyridin-8-yl}propan-2-ol], the inhibition in vivo at 10 mg/kg turned out to be 42%.

In the case of `COc1cc(-c2nnc3n2CCCC3(Oc2ccc(C(F)(F)F)cc2)C(C)(C)O)ccc1-c1cnc(C)o1` (centres unmarked) [Example 104, 2-{3-[3-methoxy-4-(2-methyl-1,3-oxazol-5-yl)phenyl]-8-[4-(trifluoromethyl)phenoxy]-5,6,7,8-tetrahydro[1,2,4]triazolo[4,3-a]pyridin-8-yl}propan-2-ol], the “Aβ42 production inhibitory activity (% inhibition)” value is given as 36 % inhibition. For the molecule `COc1cc(-c2nnc3n2CCCC3(Oc2ccc(Cl)c(F)c2)C(C)(C)O)ccc1-c1cnc(C)o1` (centres unmarked) [Example 111, 2-{8-(4-chloro-3-fluorophenoxy)-3-[3-methoxy-4-(2-methyl-1,3-oxazol-5-yl)phenyl]-5,6,7,8-tetrahydro[1,2,4]triazolo[4,3-a]pyridin-8-yl}propan-2-ol], the inhibition in vivo at 10 mg/kg is 46%. On to `CCC(O)(CC)C1(Oc2ccc(Cl)c(F)c2)CCCn2c(-c3ccc(-c4cnc(C)o4)c(OC)c3)nnc21` (centres unmarked) [Example 120, 3-{8-(4-chloro-3-fluorophenoxy)-3-[3-methoxy-4-(2-methyl-1,3-oxazol-5-yl)phenyl]-5,6,7,8-tetrahydro[1,2,4]triazolo[4,3-a]pyridin-8-yl}pentan-3-ol], for which the inhibition in vivo at 10 mg/kg came out at 21%. `COc1cc(-c2nnc3n2CCC[C@]3(Oc2cc(F)c(F)c(F)c2)C(C)(C)O)ccc1-c1cnc(C)o1` [Example 122, 2-{(8R)-3-[3-methoxy-4-(2-methyl-1,3-oxazol-5-yl)phenyl]-8-(3,4,5-trifluorophenoxy)-5,6,7,8-tetrahydro[1,2,4]triazolo[4,3-a]pyridin-8-yl}propan-2-ol]: the inhibition in vivo at 10 mg/kg amounted to 54%. As for `COc1cc(-c2nnc3n2CCCC3(Oc2ccc(F)c(F)c2)C(C)(C)O)ccc1-c1cnc(C)o1` (centres unmarked) [Example 124, 2-{8-(3,4-difluorophenoxy)-3-[3-methoxy-4-(2-methyl-1,3-oxazol-5-yl)phenyl]-5,6,7,8-tetrahydro[1,2,4]triazolo[4,3-a]pyridin-8-yl}propan-2-ol], the inhibition in vivo at 10 mg/kg was determined as 41%. The same measure, in the same setting: then `COc1cc(-c2nnc3n2CCCC3(COc2ccc(Cl)cc2)C(C)(C)O)ccc1-c1cnc(C)o1` (centres unmarked) [Example 127, 2-{8-[(4-chlorophenoxy)methyl]-3-[3-methoxy-4-(2-methyl-1,3-oxazol-5-yl)phenyl]-5,6,7,8-tetrahydro[1,2,4]triazolo[4,3-a]pyridin-8-yl}propan-2-ol], with 21%. Turning to `COc1cc(-c2nnc3n2CCCC3(Oc2cccc(C(F)(F)F)c2)C(C)(C)O)ccc1-c1cnc(C)o1` (centres unmarked) [Example 130, 2-{3-[3-methoxy-4-(2-methyl-1,3-oxazol-5-yl)phenyl]-8-[3-(trifluoromethyl)phenoxy]-5,6,7,8-tetrahydro[1,2,4]triazolo[4,3-a]pyridin-8-yl}propan-2-ol], the “Aβ42 production inhibitory activity (% inhibition)” value turned out to be 59 % inhibition.

For `COc1cc(-c2nnc3n2CCCC3(Oc2ccc(C(F)(F)F)cc2)C(C)(C)O)ccc1-c1cnc(C)o1` (centres unmarked) [Example 132, 2-{3-[3-methoxy-4-(2-methyl-1,3-oxazol-5-yl)phenyl]-8-[4-(trifluoromethyl)phenoxy]-5,6,7,8-tetrahydro[1,2,4]triazolo[4,3-a]pyridin-8-yl}propan-2-ol], the “Aβ42 production inhibitory activity (% inhibition)” value is listed as 58 % inhibition. Regarding `COc1nc(-c2nnc3n2CCCC3(Oc2cc(F)c(F)c(F)c2)C(C)(C)O)ccc1-n1cnc(C)c1` (centres unmarked) [Example 134, 2-{3-[6-methoxy-5-(4-methyl-1H-imidazol-1-yl)pyridin-2-yl]-8-(3,4,5-trifluorophenoxy)-5,6,7,8-tetrahydro[1,2,4]triazolo[4,3-a]pyridin-8-yl}propan-2-ol], the inhibition in vivo at 10 mg/kg worked out at 31%. Same read-out and setting: then `COc1cc(-c2nnc3n2CCCC3(Oc2ccc(Cl)c(C(F)(F)F)c2)C(C)(C)O)ccc1-n1cnc(C)n1` (centres unmarked) [Example 139, 2-{8-[4-chloro-3-(trifluoromethyl)phenoxy]-3-[3-methoxy-4-(3-methyl-1H-1,2,4-triazol-1-yl)phenyl]-5,6,7,8-tetrahydro[1,2,4]triazolo[4,3-a]pyridin-8-yl}propan-2-ol], with 22%. Still for that read-out and setting: the same measure for `COc1cc(-c2nnc3n2CCCC3(Oc2cc(F)cc(F)c2)C(C)(C)O)ccc1-c1cnc(C)o1` (centres unmarked) [Example 141, 2-{8-(3,5-difluorophenoxy)-3-[3-methoxy-4-(2-methyl-1,3-oxazol-5-yl)phenyl]-5,6,7,8-tetrahydro[1,2,4]triazolo[4,3-a]pyridin-8-yl}propan-2-ol]: 46%. On the same count and under the same terms, the same measure for `COc1cc(-c2nnc3n2CCCC3(Oc2cc(F)c(F)c(F)c2)C(C)(C)O)ccc1-c1cnn(C)c1` (centres unmarked) [Example 144, 2-{3-[3-methoxy-4-(1-methyl-1H-pyrazol-4-yl)phenyl]-8-(3,4,5-trifluorophenoxy)-5,6,7,8-tetrahydro[1,2,4]triazolo[4,3-a]pyridin-8-yl}propan-2-ol]: 31%. In the case of `COc1nc(-c2nnc3n2CCC[C@]3(Oc2cc(F)c(F)c(F)c2)C(C)(C)O)ccc1-n1cnc(C)c1` [Example 152, 2-{(8R)-3-[6-methoxy-5-(4-methyl-1H-imidazol-1-yl)pyridin-2-yl]-8-(3,4,5-trifluorophenoxy)-5,6,7,8-tetrahydro[1,2,4]triazolo[4,3-a]pyridin-8-yl}propan-2-ol], the inhibition in vivo at 10 mg/kg worked out at 57%. For the molecule `COc1cc(-c2nnc3n2CCCC3(Oc2cc(F)cc(F)c2)C(C)(C)O)ccc1-c1cnc(C)o1` (centres unmarked) [Example 155, 2-{8-(3,5-difluorophenoxy)-3-[3-methoxy-4-(2-methyl-1,3-oxazol-5-yl)phenyl]-5,6,7,8-tetrahydro[1,2,4]triazolo[4,3-a]pyridin-8-yl}propan-2-ol], the “Aβ42 production inhibitory activity (% inhibition)” value is listed as 56 % inhibition. Take `COc1nc(-c2nnc3n2CCCC3(Oc2ccc(F)c(C(F)(F)F)c2)C(C)(C)O)ccc1-n1cnc(C)c1` (centres unmarked) [Example 157, 2-{8-[4-fluoro-3-(trifluoromethyl)phenoxy]-3-[6-methoxy-5-(4-methyl-1H-imidazol-1-yl)pyridin-2-yl]-5,6,7,8-tetrahydro[1,2,4]triazolo[4,3-a]pyridin-8-yl}propan-2-ol]: the inhibition in vivo at 10 mg/kg was determined as 61%. Turning to `COc1cc(-c2nnc3n2CCCC3(Oc2cc(F)c(F)c(F)c2)C(C)(C)O)c(F)cc1-c1cnc(C)o1` (centres unmarked) [Example 162, 2-{3-[2-fluoro-5-methoxy-4-(2-methyl-1,3-oxazol-5-yl)phenyl]-8-(3,4,5-trifluorophenoxy)-5,6,7,8-tetrahydro[1,2,4]triazolo[4,3-a]pyridin-8-yl}propan-2-ol], the inhibition in vivo at 10 mg/kg was found to be 26%.

For `COc1nc(-c2nnc3n2CCCC3(Oc2cc(F)c(F)c(F)c2)C(C)(C)O)ccc1-c1cnc(C)o1` (centres unmarked) [Example 172, 2-{3-[6-methoxy-5-(2-methyl-1,3-oxazol-5-yl)pyridin-2-yl]-8-(3,4,5-trifluorophenoxy)-5,6,7,8-tetrahydro[1,2,4]triazolo[4,3-a]pyridin-8-yl}propan-2-ol], the inhibition in vivo at 10 mg/kg is 35%.
